Measured values taken from US20230295234A1, “ANTIMICROBIAL PEPTIDOMIMETICS” (SPEXIS AG, priority 2020, published 2023).
Read-outs that look alike come from different tables or passages of the source. Peptide text beside a SMILES is read from it.

Tests used:
[1] = system: Escherichia coli ATCC 25922; settings: ATCC 25922
Outline: (§1)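 Broth microdilution; cation-adjusted MHII; inoculum ~5×10^5 CFU/mL from 0.5 McFarland saline suspension; peptide two-fold serial dilutions; polysorbate 80 0.002% final; peptide stock 1 mg/mL in water.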

[2] = system: Escherichia coli MCR-1 Af 45
Outline: as §1

[3] = system: Klebsiella pneumoniae SSI3010; settings: SSI3010
Outline: as §1

[4] = system: human red blood cells (hRBC); assay: Hemolysis of human red blood cells; assay type: cell-based; settings: red cells of human, 1 h
Outline: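 PBS-washed human red blood cells (20% v/v) were incubated with peptide at 200 μg/mL for 1 h at 37 °C with shaking. Supernatant OD was read at 540 nm after 8-fold dilution. Hemolysis is expressed as percent of the water control.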

[5] = Mueller-Hinton broth II, 18-20 hours at 35° C.

SMILES	Escherichia coli ATCC 25922 MIC [1] [µg/mL]	Escherichia coli MCR-1 Af 45 MIC ([2]; MCR-1 Af 45) [µg/mL]	Klebsiella pneumoniae SSI3010 MIC [3] [µg/mL]	Hemolysis at 0.2 g/L [4] [%]	Escherichia coli MCR-1 Af 45 MIC [2, 5] [µg/mL]
CC[C@H](C)[C@H](NC(=O)[C@@H](NC(=O)[C@@H]1CCCN1C(=O)[C@@H](NC(=O)[C@@H]1C[C@@H](N)CN1C(=O)[C@H](CCCCN)NC(=O)[C@@H](N)CCCCN)C(C)C)[C@@H](C)CC)C(=O)N[C@@H](Cc1ccc(O)cc1)C(=O)N[C@H]1CC(=O)NCC[C@@H](C(=O)N[C@@H](CCN)C(=O)N[C@@H](CCCNC(=N)N)C(=O)N[C@@H](Cc2ccc(O)cc2)C(=O)O)NC(=O)[C@H](CCCCN)NC(=O)[C@@H](CCN)NC(=O)[C@H]([C@@H](C)O)NC(=O)[C@H](CCN)NC(=O)[C@H](CCCNC(=N)N)NC(=O)[C@H](CC(N)=O)NC1=O [Example 132] (HELM PEPTIDE1{K.K.[N[C@@H]1C[C@@H](C(=O)[*:2])N([*:1])C1].V.P.I.I.Y.D.N.R.[Dab].T.[NCC[C@@H](N[*:1])C(=O)[*:2]].K.[Dab].[Dab].R.Y}$PEPTIDE1,PEPTIDE1,9:R3-16:R3$$$V2.0)	0.0625	0.0625	0.0625	0	–
CC[C@H](C)[C@H](NC(=O)[C@@H]1C[C@@H](O)CN1C(=O)[C@@H](N)C(C)C)C(=O)N[C@H](C(=O)N[C@@H](Cc1ccc(O)cc1)C(=O)N[C@@H]1C(=O)N[C@@H](CC(N)=O)C(=O)N[C@@H](CCCNC(=N)N)C(=O)N[C@@H](CCN)C(=O)N[C@@H]([C@@H](C)O)C(=O)N[C@H](CCN)C(=O)N[C@@H](CCCCN)C(=O)N[C@H](C(=O)N[C@@H](CCN)C(=O)N[C@@H](CO)C(=O)N[C@@H](Cc2ccc(O)cc2)C(=O)O)CSSC1(C)C)[C@@H](C)O [Example 176] (HELM PEPTIDE1{V.[Hyp].I.T.Y.[Pen].N.R.[Dab].T.[NCC[C@@H](N[*:1])C(=O)[*:2]].K.C.[Dab].S.Y}$PEPTIDE1,PEPTIDE1,6:R3-13:R3$$$V2.0)	0.25	–	0.5	0	0.25
CC[C@H](C)[C@H](NC(=O)[C@@H]1C[C@@H](O)CN1C(=O)[C@@H](N)C(C)C)C(=O)N[C@H](C(=O)N[C@@H](Cc1ccc(O)cc1)C(=O)N[C@@H]1C(=O)N[C@@H](CC(N)=O)C(=O)N[C@@H](CCCNC(=N)N)C(=O)N[C@@H](CCN)C(=O)N[C@@H]([C@@H](C)O)C(=O)N[C@H](CCN)C(=O)N[C@@H](CCCCN)C(=O)N[C@H](C(=O)N[C@@H](CCN)C(=O)N[C@@H](CC(C)C)C(=O)N[C@@H](Cc2ccc(O)cc2)C(=O)O)CSSC1(C)C)[C@@H](C)O [Example 175] (HELM PEPTIDE1{V.[Hyp].I.T.Y.[Pen].N.R.[Dab].T.[NCC[C@@H](N[*:1])C(=O)[*:2]].K.C.[Dab].L.Y}$PEPTIDE1,PEPTIDE1,6:R3-13:R3$$$V2.0)	0.25	–	0.5	0	0.25
CC[C@H](C)[C@H](NC(=O)[C@@H]1C[C@@H](O)CN1C(=O)[C@@H](NC(=N)N)C(C)C)C(=O)N[C@H](C(=O)N[C@@H](Cc1ccc(O)cc1)C(=O)N[C@@H]1C(=O)N[C@@H](CC(N)=O)C(=O)N[C@@H](CCCNC(=N)N)C(=O)N[C@@H](CCN)C(=O)N[C@@H](CO)C(=O)N[C@H](CCN)C(=O)N[C@@H](CCCCN)C(=O)N[C@H](C(=O)N[C@@H](CCN)C(=O)N[C@@H](CCCN)C(=O)N[C@@H](Cc2ccc(O)cc2)C(=O)O)CSSC1(C)C)[C@@H](C)O [Example 198] (HELM PEPTIDE1{[CC(C)[C@H](NC(=N)N)C(=O)[*:2]].[Hyp].I.T.Y.[Pen].N.R.[Dab].S.[NCC[C@@H](N[*:1])C(=O)[*:2]].K.C.[Dab].[Orn].Y}$PEPTIDE1,PEPTIDE1,6:R3-13:R3$$$V2.0)	0.125	–	0.125	0	0.0625

The next lines start with results.

Escherichia coli ATCC 25922 MIC [1] [µg/mL]	Escherichia coli MCR-1 Af 45 MIC ([2]; MCR-1 Af 45) [µg/mL]	Klebsiella pneumoniae SSI3010 MIC [3] [µg/mL]	SMILES	Hemolysis at 0.2 g/L [4] [%]	Escherichia coli MCR-1 Af 45 MIC [2, 5] [µg/mL]
0.0625	0.03125	0.0625	CC[C@H](C)[C@H](NC(=O)[C@@H](NC(=O)[C@@H]1CCCN1C(=O)[C@@H](NC(=O)[C@@H]1CCCN1C(=O)CN(CCCN)C(=O)[C@@H](N)CCCCN)C(C)C)[C@@H](C)CC)C(=O)N[C@@H](Cc1ccc(O)cc1)C(=O)N[C@H]1CSSC[C@@H](C(=O)N[C@@H](CCN)C(=O)N[C@@H](CCCNC(=N)N)C(=O)N[C@@H](Cc2ccc(O)cc2)C(=O)O)NC(=O)[C@H](CCCCN)NC(=O)[C@@H](CCN)NC(=O)[C@H]([C@@H](C)O)NC(=O)[C@H](CCN)NC(=O)[C@H](CCCNC(=N)N)NC(=O)[C@H](CC(N)=O)NC1=O [Example 101] (HELM PEPTIDE1{K.[NCCCN(CC(=O)[*:2])[*:1]].P.V.P.I.I.Y.C.N.R.[Dab].T.[NCC[C@@H](N[*:1])C(=O)[*:2]].K.C.[Dab].R.Y}$PEPTIDE1,PEPTIDE1,9:R3-16:R3$$$V2.0)	0	–
0.125	0.0625	0.25	CC[C@H](C)[C@H](NC(=O)[C@@H]1C[C@@H](O)CN1C(=O)[C@@H](NC(=O)[C@@H]1C[C@@H](O)CN1C(=O)[C@H](CCCCN)NC(=O)[C@@H](N)CCCCN)C(C)C)C(=O)N[C@H](C(=O)N[C@@H](Cc1ccc(O)cc1)C(=O)N[C@@H]1C(=O)N[C@@H](CC(N)=O)C(=O)N[C@@H](CCCNC(=N)N)C(=O)N[C@@H](CCN)C(=O)N[C@@H]([C@@H](C)O)C(=O)N[C@H](CCN)C(=O)N[C@@H](CCCCN)C(=O)N[C@H](C(=O)N[C@@H](CCN)C(=O)N[C@@H](CCCN)C(=O)N[C@@H](Cc2ccc(O)cc2)C(=O)O)CSSC1(C)C)[C@@H](C)O [Example 124, Lys-Lys-Hyp-Val-Hyp-Ile-Thr-Tyr-Pen-Asn-Arg-Dab-Thr-^DDab-Lys-Cys-Dab-Orn-Tyr] (HELM PEPTIDE1{K.K.[Hyp].V.[Hyp].I.T.Y.[Pen].N.R.[Dab].T.[NCC[C@@H](N[*:1])C(=O)[*:2]].K.C.[Dab].[Orn].Y}$PEPTIDE1,PEPTIDE1,9:R3-16:R3$$$V2.0; N-terminus and C-terminus assumed)	0	–
0.125	0.125	0.25	CC[C@H](C)[C@H](NC(=O)[C@@H]1C[C@@H](O)CN1C(=O)[C@@H](NC(=O)[C@@H]1C[C@@H](O)CN1C(=N)N)C(C)C)C(=O)N[C@H](C(=O)N[C@@H](Cc1ccc(O)cc1)C(=O)N[C@@H]1C(=O)N[C@@H](CC(N)=O)C(=O)N[C@@H](CCCNC(=N)N)C(=O)N[C@@H](CCN)C(=O)N[C@@H]([C@@H](C)O)C(=O)N[C@H](CCN)C(=O)N[C@@H](CCCCN)C(=O)N[C@H](C(=O)N[C@@H](CCN)C(=O)N[C@@H](CCCNC(=N)N)C(=O)N[C@@H](Cc2ccc(O)cc2)C(=O)O)CSSC1(C)C)[C@@H](C)O [Example 35, Gua-Hyp-Val-Hyp-Ile-Thr-Tyr-Pen-Asn-Arg-Dab-Thr-^DDab-Lys-Cys-Dab-Arg-Tyr] (HELM PEPTIDE1{[N=C(N)N1C[C@H](O)C[C@H]1C(=O)[*:2]].V.[Hyp].I.T.Y.[Pen].N.R.[Dab].T.[NCC[C@@H](N[*:1])C(=O)[*:2]].K.C.[Dab].R.Y}$PEPTIDE1,PEPTIDE1,7:R3-14:R3$$$V2.0)	0	–
0.125	0.0625	0.25	CCCC[C@H](NC(=O)[C@H](CCCNC(=N)N)NC(=O)[C@H](CCN)NC(=O)[C@@H]1CSSC[C@H](NC(=O)[C@H](Cc2ccc(O)cc2)NC(=O)[C@H](Cc2c[nH]cn2)NC(=O)[C@@H](NC(=O)[C@@H]2CCCN2C(=O)[C@@H](NC(=O)[C@@H](CCCCN)NC(=O)[C@H](CCCCN)NC(=O)[C@@H](N)CCCCN)C(C)C)[C@@H](C)CC)C(=O)N[C@@H](CC(N)=O)C(=O)N[C@@H](CCCNC(=N)N)C(=O)N[C@@H](CCCNC(=N)N)C(=O)N[C@@H]([C@@H](C)O)C(=O)N[C@H](CCN)C(=O)N[C@@H](CCCCN)C(=O)N1)C(=O)O [Example 77] (HELM PEPTIDE1{K.K.[dK].V.P.I.H.Y.C.N.R.R.T.[NCC[C@@H](N[*:1])C(=O)[*:2]].K.C.[Dab].R.[Nle]}$PEPTIDE1,PEPTIDE1,9:R3-16:R3$$$V2.0)	0	–
≤0.0625	0.0625	0.0625	CCCC[C@H](NC(=O)[C@H](CCCNC(=N)N)NC(=O)[C@H](CCN)NC(=O)[C@@H]1CSSC[C@H](NC(=O)[C@H](Cc2ccc(O)cc2)NC(=O)[C@H](CCCNC(=N)N)NC(=O)[C@@H](NC(=O)[C@@H]2CCCN2C(=O)[C@@H](NC(=O)[C@@H]2CCCN2C(=O)[C@H](CCCNC(=N)N)NC(=O)[C@@H](N)CCCCN)C(C)C)[C@@H](C)CC)C(=O)N[C@@H](CC(N)=O)C(=O)N[C@@H](CCCNC(=N)N)C(=O)N[C@@H](CCCNC(=N)N)C(=O)N[C@@H]([C@@H](C)O)C(=O)N[C@H](CCN)C(=O)N[C@@H](CCCCN)C(=O)N1)C(=O)O [Example 75] (HELM PEPTIDE1{K.R.P.V.P.I.R.Y.C.N.R.R.T.[NCC[C@@H](N[*:1])C(=O)[*:2]].K.C.[Dab].R.[Nle]}$PEPTIDE1,PEPTIDE1,9:R3-16:R3$$$V2.0)	0	–
